Active and inactive are the calls of the source.
Assays:
SN12K1 = test: cells; type: functional; settings: Homo sapiens
P388 = test: cells; type: functional; settings: Mus musculus
P388/ADR = test: cells; type: functional; settings: Mus musculus
[1] = molecular target: T1, Calpain-2 catalytic subunit (Sus scrofa, UniProt P43367); test: m-calpain protease blockers, concentration series – biochemical, fluorogenic peptide substrate, dose response (AID 1420); type: functional
T1 sequence (P43367 whole entry): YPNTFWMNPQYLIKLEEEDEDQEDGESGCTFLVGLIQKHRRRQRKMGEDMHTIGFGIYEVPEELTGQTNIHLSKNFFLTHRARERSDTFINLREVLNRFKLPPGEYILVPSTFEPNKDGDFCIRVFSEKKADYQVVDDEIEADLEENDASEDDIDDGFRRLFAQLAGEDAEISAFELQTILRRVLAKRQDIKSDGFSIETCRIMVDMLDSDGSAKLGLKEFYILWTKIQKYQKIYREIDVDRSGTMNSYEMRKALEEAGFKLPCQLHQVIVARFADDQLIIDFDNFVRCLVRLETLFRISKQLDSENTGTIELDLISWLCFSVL

H9c2 = test: cells; type: functional, cell-based; settings: Rattus norvegicus, H9c2, Myocardium;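 also: confirmatory concentration-response retest of ultra-high-throughput screening hits for modulation of myocardial damage; cell death induced by hydrogen peroxide oxidative stress; compound pretreatment for 60 min then peroxide exposure for 2 h; potency is for protecting the cells against peroxide damage rather than for killing them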
[2] = molecular target: T2, Carboxy-terminal domain RNA polymerase II polypeptide A small phosphatase 1 (Homo sapiens, UniProt Q9GZU7); test: CTDSP1 inhibitors, concentration-response, biochemical, absorbance readout, ultra-high-throughput screen actives (AID 540297); type: functional
T2 sequence (Q9GZU7 whole entry): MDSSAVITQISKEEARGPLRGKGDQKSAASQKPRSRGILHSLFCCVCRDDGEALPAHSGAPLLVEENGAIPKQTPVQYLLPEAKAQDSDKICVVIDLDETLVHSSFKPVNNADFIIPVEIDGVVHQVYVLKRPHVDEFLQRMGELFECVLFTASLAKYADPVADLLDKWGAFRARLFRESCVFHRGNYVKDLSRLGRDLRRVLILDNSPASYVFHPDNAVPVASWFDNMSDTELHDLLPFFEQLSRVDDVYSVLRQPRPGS

[3] = viability of HCT116 lacking mutant beta-catenin – cell-based, human colon tumor, dose response (AID 1045); type: functional;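 also: HCT116 colon tumor cells with beta catenin knocked out; cells exposed to compound for 60 hours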
[4] = viability of PTEN-deleted HCT116 cells – cell-based, HCT116 PTEN knockout, dose response (AID 1047); type: functional;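 also: HCT116 colon tumor cells with PTEN knocked out; cells exposed to compound for 60 hours before readout; potency for loss of cell viability measured by luminescence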
[5] = Luminescence Cell-Based Dose Retest to Confirm Inhibitors of Cancer Stem Cells. [Related pubchem assays (depositor defined):AID2717, AID2721]; type: functional; settings: Homo sapiens
[6] = microbe, parasite or virus in culture; type: functional; settings: Mycobacterium tuberculosis
[7] = molecular target: T3, Microphthalmia-associated transcription factor (Homo sapiens, UniProt O75030); test: reducers of TRPM1 reporter luminescence, concentration series – cell-based, SK-MEL-5, cherry-picked, set 3, MITF inhibitor project, dose response (AID 493073); type: functional;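 also: SK-MEL-5 melanoma cells with luciferase driven by the MITF target TRPM1 promoter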
T3 sequence (O75030 whole entry): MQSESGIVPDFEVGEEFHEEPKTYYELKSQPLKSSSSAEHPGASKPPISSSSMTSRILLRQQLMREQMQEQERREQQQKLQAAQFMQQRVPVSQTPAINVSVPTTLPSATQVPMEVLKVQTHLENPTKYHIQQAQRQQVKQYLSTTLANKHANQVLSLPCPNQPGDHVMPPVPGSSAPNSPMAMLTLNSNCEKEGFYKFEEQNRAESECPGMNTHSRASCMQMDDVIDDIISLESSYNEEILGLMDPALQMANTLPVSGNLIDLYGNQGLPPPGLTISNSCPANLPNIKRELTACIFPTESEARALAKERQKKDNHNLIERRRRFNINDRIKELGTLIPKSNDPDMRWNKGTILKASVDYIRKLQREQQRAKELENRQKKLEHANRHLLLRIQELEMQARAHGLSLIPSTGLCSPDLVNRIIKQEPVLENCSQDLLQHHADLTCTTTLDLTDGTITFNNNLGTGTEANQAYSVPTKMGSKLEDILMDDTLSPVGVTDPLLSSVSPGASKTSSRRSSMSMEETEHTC

[8] = HIV-1 AD8 envelope cell-cell fusion blockers – cherry-pick, dose response (AID 652062); type: functional, cell-based;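 also: luciferase signal from cell-cell fusion driven by HIV-1 clade B AD8 Env; potency is for inhibitors of fusion seen as a drop in luminescence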
[9] = blockers of HIV-1 envelope-mediated cell-cell fusion – cherry-pick, dose response (AID 652057); type: functional, cell-based
[10] = molecular target: T4, Ubiquitin-conjugating enzyme E2 N (Homo sapiens, UniProt P61088); type: functional;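 also: Dose-response confirmation in a TR-FRET assay detecting UBC13-driven polyubiquitin chain formation, inhibition measured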
T4 sequence (P61088 whole entry): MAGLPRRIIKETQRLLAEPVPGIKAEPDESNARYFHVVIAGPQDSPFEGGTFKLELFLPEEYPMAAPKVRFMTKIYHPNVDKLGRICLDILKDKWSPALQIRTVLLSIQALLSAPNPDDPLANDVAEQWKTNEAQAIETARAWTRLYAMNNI

[11] = Trypanosoma cruzi growth suppression in host cells – NIH3T3 host cells, beta-gal luminescence, confirmation (AID 2044); type: functional, cell-based;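 also: intracellular parasites grown in NIH/3T3 mouse fibroblasts as host cells; luminescent beta-galactosidase reporter signal from transgenic T. cruzi replicating inside host cells; inhibitors lower the luminescence signal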
[12] = NIH3T3 cell viability loss – ATP luminescence, mouse fibroblasts, counter-screen, dose response (AID 2010); type: functional, cell-based;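 also: cells exposed to compound for about 90 hours before reading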
[13] = molecular target: Voltage-dependent T-type calcium channel subunit alpha-1H (Homo sapiens, UniProt O95180); type: functional;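 also: channel activity triggered by adding a high calcium stimulation buffer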
Paired box protein Pax-8 = Paired box protein Pax-8 (Homo sapiens, UniProt Q06710); test: PAX8 transcriptional activity inhibition in RMG-I – RMG-I cells, luciferase, cherry-pick, dose response (AID 687027); type: functional, cell-based;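 also: luciferase reporter driven by Pax8 target thyroperoxidase promoter measured by SteadyGlo luminescence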
[14] = P. falciparum Dd2 growth inhibitors, dose response, SYBR Green, cherry-picked samples (AID 1159567); type: functional, cell-based
[15] = toxicity to human hepatoma HepG2 cells – cell-based, cherry-picked samples, cytotoxicity control, dose response (AID 1159577); type: functional

Sequence of Voltage-dependent T-type calcium channel subunit alpha-1H (O95180 whole entry): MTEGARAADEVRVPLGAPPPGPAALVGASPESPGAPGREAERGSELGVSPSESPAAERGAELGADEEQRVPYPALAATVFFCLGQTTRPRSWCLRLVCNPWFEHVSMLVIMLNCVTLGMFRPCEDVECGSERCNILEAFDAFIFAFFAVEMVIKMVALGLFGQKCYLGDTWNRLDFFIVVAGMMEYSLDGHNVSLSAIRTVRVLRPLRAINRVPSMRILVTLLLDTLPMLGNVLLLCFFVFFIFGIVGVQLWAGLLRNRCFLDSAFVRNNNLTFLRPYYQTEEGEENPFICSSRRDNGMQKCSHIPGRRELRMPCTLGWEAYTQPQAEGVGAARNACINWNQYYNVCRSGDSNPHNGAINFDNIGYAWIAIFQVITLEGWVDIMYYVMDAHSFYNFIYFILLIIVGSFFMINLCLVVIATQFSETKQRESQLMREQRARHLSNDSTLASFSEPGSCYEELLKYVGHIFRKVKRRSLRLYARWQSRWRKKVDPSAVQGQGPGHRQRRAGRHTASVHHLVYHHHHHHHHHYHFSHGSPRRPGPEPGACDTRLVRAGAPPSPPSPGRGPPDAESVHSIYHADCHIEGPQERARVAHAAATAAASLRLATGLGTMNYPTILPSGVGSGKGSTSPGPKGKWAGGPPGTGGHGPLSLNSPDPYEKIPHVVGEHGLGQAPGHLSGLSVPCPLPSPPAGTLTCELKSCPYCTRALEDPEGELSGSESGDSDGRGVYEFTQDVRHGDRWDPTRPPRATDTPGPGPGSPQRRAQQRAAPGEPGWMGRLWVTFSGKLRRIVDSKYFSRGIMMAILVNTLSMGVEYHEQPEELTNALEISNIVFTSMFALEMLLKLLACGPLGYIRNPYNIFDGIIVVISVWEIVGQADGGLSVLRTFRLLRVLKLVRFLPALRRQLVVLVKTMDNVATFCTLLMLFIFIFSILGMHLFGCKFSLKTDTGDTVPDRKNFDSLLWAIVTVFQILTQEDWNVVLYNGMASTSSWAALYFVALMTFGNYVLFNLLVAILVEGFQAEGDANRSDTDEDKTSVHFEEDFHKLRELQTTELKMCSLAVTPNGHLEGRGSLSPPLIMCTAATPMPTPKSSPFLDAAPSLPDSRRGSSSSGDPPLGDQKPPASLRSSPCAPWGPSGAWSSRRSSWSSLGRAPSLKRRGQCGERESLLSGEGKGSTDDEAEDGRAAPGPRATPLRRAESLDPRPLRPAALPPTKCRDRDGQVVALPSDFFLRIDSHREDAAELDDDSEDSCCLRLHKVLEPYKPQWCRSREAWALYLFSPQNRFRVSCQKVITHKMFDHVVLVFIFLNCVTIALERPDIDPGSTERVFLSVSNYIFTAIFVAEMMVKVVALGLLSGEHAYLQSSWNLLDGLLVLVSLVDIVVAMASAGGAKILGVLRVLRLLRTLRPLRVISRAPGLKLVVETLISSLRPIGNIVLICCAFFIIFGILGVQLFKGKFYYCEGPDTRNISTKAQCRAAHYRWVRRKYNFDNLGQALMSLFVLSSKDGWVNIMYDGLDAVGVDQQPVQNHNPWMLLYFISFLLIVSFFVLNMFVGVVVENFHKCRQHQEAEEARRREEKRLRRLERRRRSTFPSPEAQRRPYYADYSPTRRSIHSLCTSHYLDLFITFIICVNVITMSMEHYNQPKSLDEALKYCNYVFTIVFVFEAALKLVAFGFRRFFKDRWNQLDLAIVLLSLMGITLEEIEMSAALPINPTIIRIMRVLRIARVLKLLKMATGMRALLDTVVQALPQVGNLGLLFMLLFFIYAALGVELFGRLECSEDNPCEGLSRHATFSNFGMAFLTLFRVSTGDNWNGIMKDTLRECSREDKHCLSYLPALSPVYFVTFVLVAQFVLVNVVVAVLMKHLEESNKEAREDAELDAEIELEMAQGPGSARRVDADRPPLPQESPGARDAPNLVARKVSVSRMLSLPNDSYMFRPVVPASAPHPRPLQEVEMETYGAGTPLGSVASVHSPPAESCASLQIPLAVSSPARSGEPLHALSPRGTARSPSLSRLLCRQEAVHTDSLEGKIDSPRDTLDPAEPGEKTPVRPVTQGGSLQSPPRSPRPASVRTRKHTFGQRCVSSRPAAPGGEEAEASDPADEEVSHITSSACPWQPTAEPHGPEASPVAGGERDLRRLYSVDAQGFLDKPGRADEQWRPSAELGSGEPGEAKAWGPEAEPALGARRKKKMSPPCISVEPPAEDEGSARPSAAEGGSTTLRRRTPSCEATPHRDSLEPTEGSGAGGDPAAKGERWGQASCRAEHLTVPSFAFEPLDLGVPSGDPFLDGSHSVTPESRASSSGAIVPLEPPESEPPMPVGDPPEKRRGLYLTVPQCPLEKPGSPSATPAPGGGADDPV
Sequence of Paired box protein Pax-8 (Q06710 whole entry): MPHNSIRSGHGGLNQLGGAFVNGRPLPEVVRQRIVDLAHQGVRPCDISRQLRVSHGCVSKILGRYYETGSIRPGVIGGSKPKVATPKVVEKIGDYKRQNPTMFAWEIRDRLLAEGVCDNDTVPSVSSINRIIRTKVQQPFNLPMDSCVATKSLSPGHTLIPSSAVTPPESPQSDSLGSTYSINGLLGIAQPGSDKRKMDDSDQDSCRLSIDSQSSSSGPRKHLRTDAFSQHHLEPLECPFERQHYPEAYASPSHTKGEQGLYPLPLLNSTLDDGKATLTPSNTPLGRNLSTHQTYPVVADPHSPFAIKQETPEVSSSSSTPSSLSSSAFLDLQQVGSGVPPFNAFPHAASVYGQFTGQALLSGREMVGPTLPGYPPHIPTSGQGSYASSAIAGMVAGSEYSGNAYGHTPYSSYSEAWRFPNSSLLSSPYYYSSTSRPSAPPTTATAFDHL

c1ccc2c(c1)NCc1cc3ccccc3nc1O2
GI50 (SN12K1): > 100 µM (inactive) | GI50 (P388): > 100 µM (inactive) | GI50 (P388/ADR): 74.1 µM (inactive)

CC(C)COP(=O)(OCC(C)C)C(Nc1ccccc1)c1ccc2c(c1)OCO2 (stereo unspecified)
IC50 [1]: 11.4 µM (not active) | IC50 (H9c2): > 79 µM (inactive)

COc1ccc(Br)cc1/C=C(\C(=O)O)c1ccc(S(=O)(=O)N2CCCC2)s1
IC50 [2]: 8.63 µM (active)

Cc1cc(NS(=O)(=O)c2ccc(NC(=S)NC(=O)c3ccc(C(C)(C)C)cc3)cc2)no1
IC50 [1]: 26.1 µM (not active)

CN1CCN(Cc2nc3ccccc3c(=O)n2Cc2nc(-c3ccc4ccccc4c3)cs2)CC1
EC50 [3]: 4.02 µM (active) | EC50 [4]: 4.11 µM (active) | AC50 [5]: 4.28 µM (active) | CC50 [6]: 6.44 µM (active)

COc1ccc(C)cc1Nc1nc(N)c2cc(OC)c(OC)cc2n1
AC50 [7]: 14.2 µM (active)

Cc1ccc(S(=O)(=O)N(C)C[C@@H]2Oc3ccc(NC(=O)Cc4cn(C)c5ccccc45)cc3CC(=O)N([C@H](C)CO)C[C@@H]2C)cc1
AC50 [8]: 14.5 µM (active) | AC50 [9]: 1.09 µM (active)

O=C(CCC(=O)N1CCN(S(=O)(=O)c2ccc(Cl)cc2)CC1)Nc1cccc(Br)c1
IC50 [1]: 24.9 µM (not active)

O=c1c2cc(NC(=S)NCCCN3CCC(Cc4ccccc4)CC3)ccc2nc2n1CCCCC2
IC50 [10]: > 20 µM (inactive) | EC50 [11]: 2.09 µM (active) | EC50 [12]: > 60 µM (not active) | AC50 [5]: 9.58 µM (active)

Nc1c(C(=O)C2CC2)sc2nc(-c3ccccc3)cc(C(F)(F)F)c12
EC50 [13]: 2.51 µM (active)

CC(=O)C(C[N+]1(C)CCCCC1)=NO
IC50 [2]: 3.4 µM (active)

CCc1ccc(-c2nc(CN3CCC(C(=O)N4CCN(c5ccccn5)CC4)CC3)c(C)o2)cc1
EC50 [3]: 7.28 µM (active) | EC50 [4]: 7.51 µM (active)

O=C(CSc1nc(N2CCCCC2)nc(N2CCCCC2)n1)N1CCN(c2ccccc2)CC1
EC50 [13]: 5.36 µM (active)

Cc1ccc(-c2csc(NC(=O)c3cccc(N4C(=O)CCC4=O)c3)n2)o1
EC50 [13]: 3.78 µM (active)

O=C(O)c1ccc(Nc2c3ccccc3nc3ccccc23)cc1
GI50 (SN12K1): 60.5 µM (inactive) | GI50 (P388): 3.92 µM (inactive) | GI50 (P388/ADR): 22.4 µM (inactive)

Cc1ccc(CCNC(=O)c2ccc3nc4ccccc4c(=O)n3c2)cc1
IC50 [2]: 14.2 µM (active)

COc1ccccc1N1CCN(C(=O)C(Sc2ccccc2)c2ccccc2)CC1 (stereo unspecified)
EC50 [13]: 4.93 µM (active)

COC(=O)[C@]12CCCCC=C1N(Cc1cccc3ccccc13)C(=O)[C@H](CC(=O)N1CCN(C(=O)c3ccco3)CC1)C2
AC50 (Paired box protein Pax-8): 1.59 µM (active)

Cc1ccc(C(NC(=O)N2CCOCC2)=C(Cl)Cl)cc1F
EC50 [3]: 4.71 µM (active) | EC50 [4]: 6.69 µM (active)

CCOC(=O)c1c[nH]c2cc3c(cc2c1=O)CCS3(=O)=O.CCOC(=O)c1c[nH]c2ccc3c(c2c1=O)S(=O)(=O)CC3
GI50 (SN12K1): > 100 µM (inactive) | GI50 (P388): > 100 µM (inactive) | GI50 (P388/ADR): > 100 µM (inactive)

COC1C(O)C(n2ncc3c(SC)nc(SC)nc32)OC1C(O)CO (stereo unspecified)
GI50 (SN12K1): > 37.2 µM (inactive) | GI50 (P388): 98.2 µM (inactive) | GI50 (P388/ADR): > 100 µM (inactive)

C[C@H](CO)N1C[C@H](C)[C@H](CN(C)C(=O)[C@H](C)c2ccccc2)OCc2ccccc2-c2c(n(C)c3ccccc23)C1=O
AC50 [14]: 4.15 µM (active) | AC50 [15]: 34.4 µM (active)

Cc1ccc(-c2cc(C(F)F)n3ncc(C(=O)Nc4c(C)nn(Cc5ccccc5Cl)c4C)c3n2)cc1
EC50 [3]: 8.23 µM (active) | EC50 [4]: 8.84 µM (active)

C/C(=N\NC(=O)CC(C)C)c1c(C(F)(F)F)nn(-c2nc3ccccc3s2)c1O
CC50 [6]: 37.4 µM (active)

CCC(=O)N1c2ccc(C)cc2C2=NN=C(S)NC21O (stereo unspecified)
IC50 [10]: > 20 µM (inactive)

CCN(CC)S(=O)(=O)c1ccc(Nc2nc3ccccc3n3nnnc23)cc1
EC50 [3]: 35.3 µM (active) | EC50 [4]: 22.1 µM (active) | IC50 (H9c2): > 79 µM (inactive)

CN(C)C(=O)c1cccc(-c2cccc(-c3nc(C(=O)NCc4ccccc4)cc4c3[C@@H](CCO)N([S@+]([O-])C(C)(C)C)C4)c2)c1
AC50 [14]: 1.17 µM (active) | AC50 [15]: 17.5 µM (active)

Cc1ccccc1S(=O)(=O)N1CC(=O)N2[C@H](C1)[C@@H](c1ccc(C#Cc3ccccc3)cc1)[C@@H]2CO
AC50 [14]: 3.52 µM (active) | AC50 [15]: 15.8 µM (active)

CCOc1ccc(-c2n[nH]cc2Oc2cccc(OC)c2)c(O)c1
IC50 [10]: > 20 µM (inactive)

O=C(/C=C/c1ccc(Br)cc1)c1ccco1
EC50 [3]: 10.9 µM (active) | EC50 [4]: 11.5 µM (active)

O=C(NCc1ccco1)c1ccc2c(=O)n(Cc3ccco3)c(SCC(=O)N3CCCC3)nc2c1
IC50 [2]: 6.12 µM (active)

Cn1c(N)c(C(=O)COC(=O)CCCc2nc3ccccc3s2)c(=O)n(C)c1=O
IC50 [1]: > 50 µM (not active)

COC(=O)c1[nH]c2cc(OC)ccc2c1NC(=O)CN1CCN(c2cccc(C)c2)C(C)C1 (stereo unspecified)
CC50 [6]: 30.6 µM (active)

CCOc1ccc(C2CC(c3cccc(OC)c3OC)n3nnnc3N2)cc1Cl (stereo unspecified)
EC50 [13]: 2.66 µM (active)

COc1ccc(-c2nnc(SCC(=O)Nc3cc(F)ccc3C)o2)cc1
IC50 [10]: > 20 µM (inactive)

Cc1ccc(C#CS(=O)(=O)C(F)(F)F)cc1
GI50 (SN12K1): > 100 µM (inactive) | GI50 (P388): 90.6 µM (inactive) | GI50 (P388/ADR): > 100 µM (inactive)

C[C@H](CO)N1C[C@H](C)[C@H](CN(C)S(=O)(=O)c2cccs2)Oc2ccc(NC(=O)Cc3ccccc3)cc2CC1=O
AC50 [8]: < 0.26 µM (active) | AC50 [9]: < 0.26 µM (active)

COc1ccc(N2CCN(Cc3cc4c(cc3O)CCC4)CC2)cc1
CC50 [6]: > 40 µM (active)

O=C1NC(=O)C(CCO)(c2ccccc2)C(=O)N1
GI50 (SN12K1): > 100 µM (inactive) | GI50 (P388): > 100 µM (inactive)

O=P1(N(CCCl)CCCl)NCCCO1 (stereo unspecified) [CYCLOPHOSPHAMIDE ANHYDROUS]
GI50 (SN12K1): > 245 µM (inactive) | GI50 (P388): 229 µM (inactive) | GI50 (P388/ADR): 196 µM (inactive)

Reference: ChEMBL document CHEMBL1201862, “PubChem BioAssay data set” (2004)
